Tested on: NHP oocytes (SCC-intact) and rhesus enucleated cytoplasts
Test: Taxol-induced microtubule recruitment; immunocytochemistry of HSET, NuMA, microtubules and DNA
Format: cell-based, rhesus (nonhuman primate)
Settings: 10 μM paclitaxel
Source text: FIGS. 9A-9C show microtubule patterns (green) observed in rhesus cytoplast after enucleation (FIG. 9A) or following artificial activation at 24 (FIG. 9B) or at 48 hrs (FIG. 9C) post-ionomycin/DMAP. Following enucleation, no assembled cytoplasmic microtubules (FIG. 9A: green) are observed. After activation, abundant disarrayed microtubules (FIG. 9B: green) assemble in the DNA-less cytoplast. Rarely, a microtubule structure resembling a bipolar spindle (FIG. 9C: green) assembles in the cytoplasm. The insets of FIGS. 9A-9C show DNA imaging confirming successful removal of the SCC. […] Second meiotic chromosomes, are blue. FIGS. 9H-9J show a rhesus enucleated cytoplast treated for 30 minutes with 10 μM paclitaxel prior to fixation and detection of DNA (H, blue), microtubules (I, red), and HSET (J, green). The assembled cytoplasmic microtubule bundles are not labeled by HSET antibody. FIGS. 9A-9C and 9E are double-labeled images for microtubules (green) and DNA (blue). FIGS. 9D, 9F, and 9G are triple-labeled images for HSET (green), microtubules (red) and DNA (blue). FIGS. 9H-9J are single-labeled images for DNA (blue), microtubules (red), and HSET (green). Bars represent 10 μm.
FIGS. 10D and 10E show NuMA detection in the somatic cell nuclei of cumulus (FIG. 10D: green) and rhesus fibroblast cells (FIG. 10E: green; red, microtubules). […] NuMA (green) is strongly detected in the decondensed male pronucleus (MPn), but diminished in the unsuccessful fibroblast cell (arrowhead) attached at the oocyte surface. In the upper inset of FIG. 10F, red depicts microtubules while blue depicts DNA. In the lower inset of FIG. 10F, the sperm centrosome organizes a microtubule astral array (arrow) near the decondensed male pronucleus. […] NuMA (green) is found at both poles on the intact metaphase-II spindle (red) with aligned chromosomes (blue) as well as at the base of the condensed sperm head (blue, arrow). However, NuMA (green) is missing from the disorganized multipolar NT spindle microtubules (red) assembling around the scattered somatic cell chromosomes (blue). […] NuMA (green) is detected at the poles in both the NT spindle (lower arrow; red, microtubules; blue, DNA) and the intact second meiotic metaphase spindle (upper arrow; red, microtubules; blue, DNA). […]
Imaging. […] NuMA, HSET (human spleen embryonic tissue and testis), and Eg5 were detected using rabbit polyclonal antibodies as described in Mountain, 147 J. CELL BIOL. […] Primary antibodies were detected using Alexa secondary antibodies (Alexa-546 goat anti-mouse IgG; Alexa-488 goat anti-rabbit IgG; Molecular Probes, Eugene, Oreg.). […] DNA was fluorescently detected with 10 μg/ml Hoechst 33342 (Sigma) and 1 μM Toto-3 (Molecular Probes) added to the penultimate rinse. […]

Q: What does the source list for `CC(=O)O[C@H]1C(=O)[C@@]2(C)[C@H]([C@H](OC(=O)c3ccccc3)[C@]3(O)C[C@H](OC(=O)[C@H](O)[C@@H](NC(=O)c4ccccc4)c4ccccc4)C(C)=C1C3(C)C)[C@]1(OC(C)=O)CO[C@@H]1C[C@@H]2O` [Paclitaxel]?
A: NuMA localization (SCC-intact mature NHP oocyte, 20 minutes (FIG. 10C)): NuMA localization at disorganized spindle poles; cytoplasmic microtubule assembly (enucleated cytoplast lacking the SCC, 30 minutes (FIG. 9I)): numerous cytoplasmic microtubule bundles assembled in the cytoplasm; HSET detection at cytoplasmic microtubule bundles (enucleated cytoplast lacking the SCC, 30 minutes (FIG. 9J)): without HSET protein detection; HSET protein localization (intact mature oocyte, 30 minutes (FIG. 9G)): enhanced HSET protein only at the second meiotic spindle poles

From US20100242125A1, “METHODS FOR CORRECTING MITOTIC SPINDLE DEFECTS AND OPTIMIZING PREIMPLANTATION EMBRYONIC DEVELOPMENTAL RATES ASSOCIATED WITH SOMATIC CELL NUCLEAR TRANSFER IN ANIMALS” (priority 2003, published 2010)
